Data from patent US20240116985A1, “STAPLED PEPTIDES AND METHODS THEREOF” (priority 2020, published 2024).
Like-named read-outs stand apart in the source and are kept apart here.

Key:
[1] = target: T1, full-length beta-Catenin (Uniprot ID P35222) (Homo sapiens, UniProt P35222); test: Fluorescence polarization IC50 (beta-catenin / 5FAM-TCF4 10-53 competition); format: binding
T1 construct: 10 nM full-length beta-Catenin (Uniprot ID P35222)
T1 sequence (P35222 1-781): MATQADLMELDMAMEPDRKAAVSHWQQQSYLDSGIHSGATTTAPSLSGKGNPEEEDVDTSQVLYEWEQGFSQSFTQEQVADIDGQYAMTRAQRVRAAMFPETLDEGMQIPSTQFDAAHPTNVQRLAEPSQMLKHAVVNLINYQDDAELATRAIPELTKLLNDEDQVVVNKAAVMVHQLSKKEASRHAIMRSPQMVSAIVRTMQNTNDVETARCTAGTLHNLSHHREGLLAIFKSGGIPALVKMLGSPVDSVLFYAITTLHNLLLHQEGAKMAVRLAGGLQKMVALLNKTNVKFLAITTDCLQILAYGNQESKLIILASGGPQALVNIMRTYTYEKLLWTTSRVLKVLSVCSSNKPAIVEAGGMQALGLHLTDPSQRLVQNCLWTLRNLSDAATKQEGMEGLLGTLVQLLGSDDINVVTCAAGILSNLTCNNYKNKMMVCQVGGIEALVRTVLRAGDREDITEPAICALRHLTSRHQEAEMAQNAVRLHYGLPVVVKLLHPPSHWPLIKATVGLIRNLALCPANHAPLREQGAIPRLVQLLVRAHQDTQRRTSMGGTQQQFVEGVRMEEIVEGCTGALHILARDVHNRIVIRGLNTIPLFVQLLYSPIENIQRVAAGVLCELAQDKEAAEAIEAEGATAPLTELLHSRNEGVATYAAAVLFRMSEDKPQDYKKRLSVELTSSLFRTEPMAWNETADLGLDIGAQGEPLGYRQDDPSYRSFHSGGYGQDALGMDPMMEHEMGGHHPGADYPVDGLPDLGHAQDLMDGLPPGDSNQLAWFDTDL

CHI Log D procedure = format: physicochemical
[2] = fluorescence polarization, read-out: beta-Catenin FP IC50
[3] = fluorescence polarization, beta-catenin, read-out: FP EC50
[4] = Table E2-1, read-out: beta-Catenin FP IC50

## CC(=O)N1CCC[C@]12CC=CCCCC1(CCCC=CCCCCCC[C@@](C)(C(=O)N[C@@H](Cc3ccccc3)C(=O)N[C@@H](Cc3csc4ccccc34)C(=O)N[C@@H](CCC(N)=O)C(N)=O)NC(=O)[C@H](CC(N)=O)NC(=O)[C@H](Cc3cccc(F)c3)NC(=O)[C@H](C)NC(=O)[C@H](C)NC(=O)[C@H](CCC(=O)O)NC(=O)[C@H](CC(=O)O)NC1=O)NC(=O)[C@H](C)NC(=O)[C@H](CC(=O)O)NC2=O (stereo partly drawn) [I-454, Ac-PL3-Asp-Ala-B5-Asp-Glu-Ala-Ala-3FF-Asn-S8-Phe-BztA-Gln-NH2]
[1]; [2]
  IC50: 125 nM
CHI Log D procedure; pH 7.4, CHI Log D
  chromatographic logD: 2.05

## CC(=O)N1CCC[C@]12CC=CCCCC1(CCCC=CCCCOC(=O)N3CC[C@@](C(=O)N[C@@H](Cc4ccsc4)C(=O)N[C@@H](Cc4csc5ccccc45)C(=O)N[C@@H](CO)C(N)=O)(C3)NC(=O)[C@H](Cc3ccccc3)NC(=O)[C@H](Cc3ccccc3)NC(=O)[C@H](C)NC(=O)[C@H](C)NC(=O)[C@H](CN(CC(=O)O)CC(F)(F)F)NC(=O)[C@H](CC(=O)O)NC1=O)NC(=O)[C@H](CC(C)(C)C)NC(=O)[C@H](CC(=O)O)NC2=O (stereo partly drawn) [I-963, Ac-PL3-Asp-Npg-B5-Asp-TfeGA-Ala-Ala-Phe-Phe-PyrS2-3Thi-BztA-Ser-NH2]
[1]; [3]
  IC50: 402 nM
[1]; read-out: beta-Catenin FP IC50
  IC50: 402 nM
CHI Log D procedure; pH 7.4
  CHI Log D: 2.117

## CC(=O)N1CCC[C@]12CC=CCCCC1(CCCC=CCCCCCC[C@@](C)(C(=O)N[C@@H](Cc3ccccc3)C(=O)N[C@@H](Cc3c[nH]c4ccccc34)C(=O)N[C@@H](C)C(N)=O)NC(=O)[C@H](C(C)C)NC(=O)[C@H](Cc3ccccc3)NC(=O)[C@H](C)NC(=O)[C@H](C)NC(=O)[C@H](CCC(=O)O)NC(=O)[C@H](CC(=O)O)NC1=O)NC(=O)[C@H](C)NC(=O)[C@H](CC(=O)O)NC2=O (stereo partly drawn) [I-135, Ac-PL3-Asp-Ala-B5-Asp-Glu-Ala-Ala-Phe-Val-S8-Phe-Trp-Ala-NH2]
[1]; [4]
  IC50: 1870 nM
CHI Log D procedure; pH 7.4, CHI Log D
  chromatographic logD: 2.18

## CC[C@H](C)[C@@H]1NC(=O)[C@H](CC(=O)O)NC(=O)[C@]2(CC=CCCCC3(CCCC=CCCCCCC[C@@](C)(C(=O)N[C@@H](Cc4ccccc4)C(=O)N[C@@H](Cc4csc5ccccc45)C(=O)N[C@@H](Cc4c[nH]cn4)C(N)=O)NC(=O)[C@H](CCC(N)=O)NC(=O)[C@H](Cc4ccccc4)NC(=O)[C@H](C)NC(=O)[C@H](C)NC(=O)[C@H](CC(=O)O)NC(=O)[C@H](CC(=O)O)NC3=O)NC1=O)CCCN2C(C)=O (stereo partly drawn) [I-581, Ac-PL3-Asp-Ile-B5-Asp-Asp-Ala-Ala-Phe-Gln-S8-Phe-BztA-His-NH2]
[1]; [2]
  IC50: 112 nM
[1]; read-out: FP EC50
  IC50: 112 nM
CHI Log D procedure; pH 7.4
  CHI Log D: 2.458

## CC(=O)N1CCC[C@]12CC=CCCCC1(CCCC=CCCCOC(=O)N3CC[C@@](C(=O)N[C@@H](Cc4ccccc4Cl)C(=O)N[C@@H](Cc4csc5ccccc45)C(=O)N[C@@H](CCC(N)=O)C(N)=O)(C3)NC(=O)[C@H](CC(C)C)NC(=O)[C@H](Cc3ccccc3)NC(=O)[C@H](C)NC(=O)[C@H](C)NC(=O)[C@H](CC(=O)O)NC(=O)[C@H](CC(=O)O)NC1=O)NC(=O)[C@H](CC1CCCCC1)NC(=O)[C@H](CC(=O)O)NC2=O (stereo partly drawn) [I-1076, Ac-PL3-Asp-Cha-B5-Asp-Asp-Ala-Ala-Phe-Leu-PyrS2-2C1F-BztA-Gln-NH2]
[1]; [3]
  IC50: 448 nM
[1]; read-out: beta-Catenin FP IC50
  IC50: 448 nM
CHI Log D procedure; pH 7.4
  CHI Log D: 2.049

## CC(=O)N1CCC[C@]12CC=CCCCC1(CCCC=CCCCCCC[C@@](C)(C(=O)N[C@@H](Cc3ccccc3)C(=O)N[C@@H](Cc3csc4ccccc34)C(=O)N[C@@H](CCC(N)=O)C(N)=O)NC(=O)[C@H](C)NC(=O)[C@H](Cc3ccccc3C)NC(=O)[C@H](C)NC(=O)[C@H](C)NC(=O)[C@H](CC(=O)O)NC(=O)[C@H](CC(=O)O)NC1=O)NC(=O)[C@H](C)NC(=O)[C@H](CC(=O)O)NC2=O (stereo partly drawn) [I-366, Ac-PL3-Asp-Ala-B5-Asp-Asp-Ala-Ala-2MeF-Ala-S8-Phe-BztA-Gln-NH2]
[1]; [4]
  IC50: 1440 nM
[1]; [3]
  IC50: 1440 nM
CHI Log D procedure; pH 7.4
  CHI Log D: 2.084

## CC(=O)N1CCC[C@]12CC=CCCCC1(CCCC=CCCCCCC[C@@](C)(C(=O)N[C@@H](Cc3cccc(F)c3)C(=O)N[C@@H](Cc3csc4ccccc34)C(=O)N[C@@H](Cc3c[nH]cn3)C(N)=O)NC(=O)[C@H](CCC(N)=O)NC(=O)[C@H](Cc3ccsc3)NC(=O)[C@H](C)NC(=O)[C@H](C)NC(=O)[C@H](CCC(=O)O)NC(=O)[C@H](CC(=O)O)NC1=O)NC(=O)[C@H](C)NC(=O)[C@H](CC(=O)O)NC2=O (stereo partly drawn) [I-430, Ac-PL3-Asp-Ala-B5-Asp-Glu-Ala-Ala-3Thi-Gln-S8-3FF-BztA-His-NH2]
[1]; [2]
  IC50: 154 nM
CHI Log D procedure; pH 7.4, CHI Log D
  chromatographic logD: 2.13

## CC(=O)N1CCC[C@]12CC=CCCCC1(CCCC=CCCCCCC[C@@](C)(C(=O)N[C@@H](Cc3ccccc3)C(=O)N[C@@H](Cc3cccc4ccc(F)cc34)C(=O)N[C@@H](CCC(N)=O)C(N)=O)NC(=O)[C@H](C(C)C)NC(=O)[C@H](Cc3ccccc3)NC(=O)[C@H](C)NC(=O)[C@H](C)NC(=O)[C@H](CC(=O)O)NC(=O)[C@H](CC(=O)O)NC1=O)NC(=O)[C@H](C)NC(=O)[C@H](CC(=O)O)NC2=O (stereo partly drawn) [I-368, Ac-PL3-Asp-Ala-B5-Asp-Asp-Ala-Ala-Phe-Val-S8-Phe-7F1NapA-Gln-NH2]
[1]; [4]
  IC50: 5000 nM
CHI Log D procedure; pH 7.4, CHI Log D
  chromatographic logD: 2.17

## CC[C@H](C)[C@@H]1NC(=O)[C@H](CC(=O)O)NC(=O)[C@]2(CC=CCCCC3(CCCC=CCCCCCC[C@@](C)(C(=O)N[C@@H](Cc4ccccc4)C(=O)N[C@@H](Cc4csc5ccccc45)C(=O)N[C@@H](CCCCNC(=O)CN=[N+]=[N-])C(N)=O)NC(=O)[C@H](CCC(N)=O)NC(=O)[C@H](Cc4ccccc4)NC(=O)[C@H](C)NC(=O)[C@H](C)NC(=O)[C@H](CCC(=O)O)NC(=O)[C@H](CC(=O)O)NC3=O)NC1=O)CCCN2C(C)=O (stereo partly drawn) [I-595, Ac-PL3-Asp-Ile-B5-Asp-Glu-Ala-Ala-Phe-Gln-S8-Phe-BztA-[AzAc]Lys-NH2]
[1]; FP EC50 (nM)
  IC50: 57 nM
CHI Log D procedure; pH 7.4
  chromatographic logD: 2.64

## CC(=O)N1CCC[C@]12CC=CCCCC1(CCCC=CCCCOC(=O)N3CC[C@@](C(=O)N[C@@H](Cc4ccsc4)C(=O)N[C@@H](Cc4csc5ccccc45)C(=O)N[C@@H](CCC(N)=O)C(N)=O)(C3)NC(=O)[C@H](Cc3ccccc3)NC(=O)[C@H](Cc3ccccc3)NC(=O)[C@H](C)NC(=O)[C@H](C)NC(=O)[C@H](CC(N)=O)NC(=O)[C@H](CC(=O)O)NC1=O)NC(=O)[C@H](CC(C)(C)C)NC(=O)[C@H](CC(=O)O)NC2=O (stereo partly drawn) [I-855, Ac-PL3-Asp-Npg-B5-Asp-Asn-Ala-Ala-Phe-Phe-PyrS2-3Thi-BztA-Gln-NH2]
[1]; read-out: beta-Catenin FP IC50
  IC50: 22 nM
CHI Log D procedure; pH 7.4, CHI Log D
  chromatographic logD: 2.54

## CC(=O)N1CCC[C@]12CC=CCCCC1(CCCC=CCCCCCC[C@@](C)(C(=O)N[C@@H](Cc3ccccc3)C(=O)N[C@@H](Cc3csc4ccccc34)C(=O)N[C@@H](CCC(N)=O)C(N)=O)NC(=O)[C@H](CC(N)=O)NC(=O)[C@H](Cc3ccccc3C)NC(=O)[C@H](C)NC(=O)[C@H](C)NC(=O)[C@H](CCC(=O)O)NC(=O)[C@H](CC(=O)O)NC1=O)NC(=O)[C@H](C)NC(=O)[C@H](CC(=O)O)NC2=O (stereo partly drawn) [I-456, Ac-PL3-Asp-Ala-B5-Asp-Glu-Ala-Ala-2MeF-Asn-S8-Phe-BztA-Gln-NH2]
[1]; [2]
  IC50: 2170 nM
[1]; read-out: FP EC50
  IC50: 2170 nM
CHI Log D procedure; pH 7.4
  CHI Log D: 2.0045

## CC[C@@H]1NC(=O)[C@H](CC(=O)O)NC(=O)[C@]2(CC=CCCCC3(CCCC=CCCCCCC[C@@](C)(C(=O)N[C@@H](Cc4ccccc4)C(=O)N[C@@H](Cc4csc5ccccc45)C(=O)N[C@@H](Cc4c[nH]cn4)C(N)=O)NC(=O)[C@H](CCC(N)=O)NC(=O)[C@H](Cc4ccccc4)NC(=O)[C@H](C)NC(=O)[C@H](C)NC(=O)[C@H](CCC(=O)O)NC(=O)[C@H](CC(=O)O)NC3=O)NC1=O)CCCN2C(C)=O (stereo partly drawn) [I-570, Ac-PL3-Asp-Abu-B5-Asp-Glu-Ala-Ala-Phe-Gln-S8-Phe-BztA-His-NH2]
[1]; [2]
  IC50: 56 nM
[1]; read-out: FP EC50
  IC50: 56 nM
CHI Log D procedure; pH 7.4
  CHI Log D: 2.219

## CCCC[C@@H]1NC(=O)[C@H](C)NC(=O)[C@H](CCC(=O)O)NC(=O)[C@H](CC(=O)O)NC(=O)C2(CCCC=CCCCCCC[C@@](C)(C(=O)N[C@@H](Cc3ccccc3)C(=O)N[C@@H](Cc3csc4ccccc34)C(=O)N[C@@H](CCC(N)=O)C(N)=O)NC(=O)[C@H](CCC(N)=O)NC(=O)[C@H](Cc3ccccc3)NC1=O)CCCC=CC[C@]1(CCCN1C(C)=O)C(=O)N[C@@H](CC(=O)O)C(=O)N[C@@H]([C@@H](C)CC)C(=O)N2 (stereo partly drawn) [I-667, Ac-PL3-Asp-Ile-B5-Asp-Glu-Ala-nLeu-Phe-Gln-S8-Phe-BztA-Gln-NH2]
[1]; [2]
  IC50: 585 nM
[1]; read-out: FP EC50
  IC50: 585 nM
CHI Log D procedure; pH 7.4
  CHI Log D: 2.88

## CC(=O)N1CCC[C@]12CC=CCCCC1(CCCC=CCCCCCC[C@@](C)(C(=O)N[C@@H](Cc3ccccc3)C(=O)N[C@@H](Cc3c[nH]c4ccccc34)C(=O)N[C@@H](C)C(N)=O)NC(=O)[C@H](C)NC(=O)[C@H](Cc3ccccc3)NC(=O)[C@H](C)NC(=O)[C@H](C)NC(=O)[C@H](CCC(=O)O)NC(=O)[C@H](CC(=O)O)NC1=O)NC(=O)[C@H](C)NC(=O)[C@H](CC(=O)O)NC2=O (stereo partly drawn) [I-187, Ac-PL3-Asp-Ala-B5-Asp-Glu-Ala-Ala-Phe-Ala-S8-Phe-Trp-Ala-NH2]
[1]; [4]
  IC50: 3320 nM
[1]; [3]
  IC50: 3320 nM
CHI Log D procedure; pH 7.4
  CHI Log D: 2.083
